Test results reported in US20110158944A1, “BRAF BIOMARKERS” (priority 2007, published 2011).
Read-outs that look alike come from different tables or passages of the source.

How the values were obtained:
SJCRH30 = experiment: Cell proliferation IC50 (Cell Titer Glo); format: cell-based; conditions: Homo sapiens, 96 h, read-out: IC50 cell proliferation
Experimental: (§1) IC50 Cell proliferation measurements. Cell proliferation was assessed in the 41 tumor cell lines set forth in Table 2 after 4 days of continuous exposure to either the ERK1/2 inhibitor, compound a or the MEK inhibitor compound b (PD0325901) using Promega Cell Titer Glo reagent (Promega Corp, Madison, Wis.). Promega's CellTiter-Glo™ Luminescent Cell Viability Assay is a sensitive method for assaying cell proliferation using a stable form of luciferase to measure ATP as an indicator of viable cells. This reagent allows a homogeneous method of determining cell number by quantitation of ATP. The luciferase luminescent signal produced is proportional to the number of viable cells present in culture.
(§2) A 1000× compound dose response curve, containing 8 dilutions of each compound, was prepared on a 96-well plate. Compounds were diluted in 100% DMSO to the following (1000×) concentrations: compound b: 1000 μM, 333 μM, 111 μM, 37 μM, 12 μM, 4.1 μM, 1.4 μM and 0.5 μM; compound a: 3000 μM, 1000 μM, 333 μM, 111 μM, 37 μM, 12 μM, 4.1 μM and 1.4 μM. This compound source plate was sealed and kept frozen between uses.
(§3) Cells were grown in RPMI 1640 medium supplemented with 10% Fetal Bovine Serum, 2 mM Glutamine and non-essential amino acids or DMEM/F12 Media containing the same supplements. On day zero, cells were trypsinized, counted and plated into wells of a 96-well Wallac TC Isoplate (Perkin-Elmer Wallac, Gaithersburg, Md.) at a density of 1500-2000 cells per well in 50 μl of complete media. An additional 6-8 replicate well of the cells at the same density were plated on a separate Wallac TC Isoplate. This plate was developed on day 1 to determine the cell-growth baseline.
(§4) On day 1 of treatment, compound was diluted to 2× in media and immediately added to the cells as follows: one ml of media was added to each well of a deep-well 96-well plate and 2 μl of 1000× compound was added with mixing to make 2× compound in media. 50 μl of the media containing 2× compound was added to the cell plates in duplicate points so the final concentrations for each well were as outlined in Table 1. The plates were then returned to a 37° C. incubator and left undisturbed for 4 days. The day 1 (baseline) plates were developed by first adding 50 μl media (without compound) to bring the volume in each well to 100 μl, then adding 100 μl of Cell Titer Glo reagent (as below).
(§5) After four days of treatment, the plates were developed with Cell Titer Glo (CTG) reagent (Promega Corp.; Madison, Wis.). Reagent was reconstituted as described in the product insert. 100 μl of reagent was added to all treatment and control wells and the plates were gently shaken for 5 minutes then incubated an additional 5 minutes before reading in an Analyst AD (Molecular Devices Corporation; Sunnyvale, Calif.) using the Luminescence settings.
(§6) Data was analyzed in Excel using XLfit 4.2, fit model #205 (Dose Response One Site)

H292 = experiment: Cell proliferation IC50 (Cell Titer Glo); format: cell-based; conditions: Homo sapiens, NCI-H292, 96 h, read-out: IC50 cell proliferation
Experimental: as §1, §2, §3, §4, §5, §6

IGROV-1 = experiment: Cell proliferation IC50 (Cell Titer Glo); format: cell-based; conditions: Homo sapiens, read-out: IC50 cell proliferation
Experimental: as §1, §2, §3, §4, §5, §6

H716 = experiment: Cell proliferation IC50 (Cell Titer Glo); format: cell-based; conditions: Homo sapiens, NCI-H716, 96 h, read-out: IC50 cell proliferation
Experimental: as §1, §2, §3, §4, §5, §6

A2058 = experiment: Cell proliferation IC50 (Cell Titer Glo); format: cell-based; conditions: Homo sapiens, read-out: IC50 cell proliferation
Experimental: as §1, §2, §3, §4, §5, §6

WiDr = experiment: Cell proliferation IC50 (Cell Titer Glo); format: cell-based; conditions: Homo sapiens, 96 h, read-out: IC50 cell proliferation
Experimental: as §1, §2, §3, §4, §5, §6

MB-453 = experiment: Cell proliferation IC50 (Cell Titer Glo); format: cell-based; conditions: Homo sapiens, 96 h, read-out: IC50 cell proliferation
Experimental: as §1, §2, §3, §4, §5, §6

WM-115 = experiment: Cell proliferation IC50 (Cell Titer Glo); format: cell-based, human; conditions: 4 days continuous exposure
Experimental: as §1, §2, §3, §4, §5, §6

[1] = system: V600E BRAF homozygous genotype cell lines; experiment: Cell proliferation IC50 (Cell Titer Glo), summary by genotype; format: cell-based; conditions: Homo sapiens, read-out: IC50 cell proliferation
Experimental: as §1, §2, §3
as §4, with “The day 1 (baseline) plates were developed by first adding 50 μl media (without compound) to bring the volume in each well to 100 μl, then adding 100 μl of Cell Titer Glo reagent (as below).” left out
as §5, with “Reagent was reconstituted as described in the product insert.” left out
as §6

[2] = system: Cell lines with either the heterozygote V600E BRAF mutation or wild type BRAF genotype; experiment: as above; format: cell-based; conditions: Homo sapiens, read-out: IC50 cell proliferation
Experimental: as §1, §2, §3
as §4, with “The day 1 (baseline) plates were developed by first adding 50 μl media (without compound) to bring the volume in each well to 100 μl, then adding 100 μl of Cell Titer Glo reagent (as below).” left out
as §5, with “Reagent was reconstituted as described in the product insert.” left out
as §6

WM-266-4 = experiment: Cell proliferation IC50 (Cell Titer Glo); format: cell-based, human; conditions: 4 days continuous exposure
Experimental: as §1, §2, §3, §4, §5, §6

`O=C(Nc1ccc2[nH]nc(-c3ccncc3)c2c1)C1CCN(CC(=O)N2CCN(c3ccc(-c4ncccn4)cc3)CC2)C1` (stereo not drawn) [cpd. a] showed an IC50 (SJCRH30; SJCRH30, Rhabdomyosarcoma, BRAF V600V Wild type, 4 days continuous exposure) of 2000 nM, an IC50 (H292; H292, Lung, BRAF V600V Wild type, 4 days continuous exposure) of 90 nM and an IC50 (IGROV-1; 96 h, IGROV-1, Ovarian, BRAF V600V Wild type, 4 days continuous exposure) of 146 nM. It also gave an IC50 (H716; H716, Colon, BRAF V600V Wild type, 4 days continuous exposure) of 334 nM, an IC50 (A2058; 96 h, A2058, Melanoma, BRAF V600E Heterozygous, 4 days continuous exposure) of 120 nM and an IC50 (WiDr; Colon, BRAF V600E Heterozygous, 4 days continuous exposure) of 39 nM. The IC50 (MB-453; MB-453, Breast, BRAF V600E Heterozygous, 4 days continuous exposure) was 672 nM, the IC50 (WM-115; Homo sapiens, WM-115, 96 h, WM-115, Melanoma, BRAF V600D Heterozygous, read-out: IC50 cell proliferation) was less than 100 nM and the IC50 (WM-115; WM-115, Melanoma, BRAF V600D Heterozygous, read-out: IC50 cell proliferation) was 60 nM. For the same molecule, the IC50 ([1]; nine of the nine V600E BRAF homozygous genotype cell lines tested) was less than 100 nM and the IC50 ([2]; 25 of the 32 cell lines tested (heterozygote V600E or wild type BRAF)) was greater than 100 nM.

In the case of `O=C(NOC[C@H](O)CO)c1ccc(F)c(F)c1Nc1ccc(I)cc1F` [cpd. b, PD0325901], the IC50 (SJCRH30) is reported as 1000 nM, the IC50 (H292) is reported as 5 nM and the IC50 (IGROV-1; IGROV-1, 96 h) is reported as 39 nM. For the same molecule, the IC50 (H716) was 164 nM, the IC50 (A2058; A2058, 96 h) was 10 nM and the IC50 (WiDr) was 6 nM. For the same molecule, the IC50 (MB-453) was 1000 nM, the IC50 (WM-266-4; Homo sapiens, WM 266-4, 96 h, read-out: IC50 cell proliferation, WM-266-4, Melanoma, BRAF V600D Heterozygous) was less than 10 nM and the IC50 (WM-266-4; read-out: IC50 cell proliferation, WM-266-4, Melanoma, BRAF V600D Heterozygous) was 10 nM. For the same molecule, the IC50 (WM-115; Homo sapiens, WM-115, 96 h, read-out: IC50 cell proliferation, WM-115, Melanoma, BRAF V600D Heterozygous) was less than 10 nM, the IC50 (WM-115; read-out: IC50 cell proliferation, WM-115, Melanoma, BRAF V600D Heterozygous) was 10 nM and the IC50 [1] was no more than 10 nM. For the same molecule, the IC50 [2] was greater than 10 nM.
